Test [1] relates to PER-producing P. aeruginosa clinical isolates. The test is described as follows: microbe, parasite or virus in culture. Conditions: for % resistance: share of isolates resistant. In kind it is cell-based, Pseudomonas aeruginosa.
In test [2] the test system is Recombinant PAO1 strains. The test is described as follows: Broth microdilution MIC, recombinant PAO1 strains carrying blaPER. The following applies: Pseudomonas aeruginosa. In kind it is cell-based. Background: Dilution methods test growth across graded concentrations, often in twofold steps.
Test [3] has as its system PAO1 transconjugants carrying blaPER-1 plasmids. As to the kind of experiment: Broth microdilution MIC, transconjugants and recipient PAO1-Rrif. The test is classed as cell-based. The following applies: Pseudomonas aeruginosa.
[4] abbreviates: PAO1, strain PAO1-pGK1900 (empty vector).
The mark [5] stands for this setting: PAO1, recipient strain PAO1-R^rif.
Where [6] appears, read: PAO1, transconjugant PAO1/pPA268.
The mark [7] stands for this setting: PAO1, transconjugant PAO1/pPA272.
The mark [8] stands for this setting: PAO1, transconjugant PAO1/pPA282.
Where [9] appears, read: PAO1, transconjugant PAO1/pPA975.
Setting [10] is: PAO1, transconjugant PAO1/pPA1017.
The mark [11] stands for this setting: PAO1, transconjugant PAO1/pPA1018.
[12] abbreviates: Pseudomonas aeruginosa, isolate PA268.
Setting [13] is: Pseudomonas aeruginosa, isolate PA272.
Setting [14] is: Pseudomonas aeruginosa, isolate PA282.
The mark [15] stands for this setting: Pseudomonas aeruginosa, isolate PA975.
Setting [16] is: Pseudomonas aeruginosa, isolate PA1017.
The mark [17] stands for this setting: Pseudomonas aeruginosa, isolate PA1018.

Converted amounts (≈) assume the structure as drawn.

Take `NCC[C@H](O)C(=O)N[C@@H]1C[C@H](N)[C@@H](O[C@H]2O[C@H](CN)[C@@H](O)[C@H](O)[C@H]2O)[C@H](O)[C@H]1O[C@H]1O[C@H](CO)[C@@H](O)[C@H](N)[C@H]1O` [AMK, amikacin]: the “% resistance” value in test [1] (56 PER-producing PA strains) was found to be 94.64%. In test [1] (Pseudomonas aeruginosa), this compound gave an MIC50 greater than 128 µg/mL and an MIC90 greater than 128 µg/mL.
On to `C[C@H]1[C@H](NC(=O)/C(=N\OC(C)(C)C(=O)O)c2csc(N)n2)C(=O)N1S(=O)(=O)O` [AZT, aztreonam], for which the MIC is 4 µg/mL in test [2] (PAO1); 8 µg/mL in test [2] (setting [4]); greater than 128 µg/mL in test [2] (PAO1, strain PAO1-pGK1900-PER1); greater than 128 µg/mL in test [2] (PAO1, strain PAO1-pGK1900-PER4); 2 µg/mL (≈ 4.59 µM) in test [3] (setting [5]); greater than 128 µg/mL in test [3] (setting [6]). Further, the MIC in test [3] (setting [7]), in test [3] (setting [8]), in test [3] (setting [9]), in test [3] (setting [10]) and in test [3] (setting [11]) was greater than 128 µg/mL throughout.
`CC(C)(O/N=C(\C(=O)N[C@@H]1C(=O)N2C(C(=O)[O-])=C(C[N+]3(CCNC(=O)c4ccc(O)c(O)c4Cl)CCCC3)CS[C@H]12)c1csc(N)n1)C(=O)O` [CFDC, Cefiderocol]: the MIC amounted to 2 µg/mL (≈ 2.66 µM) in test [1] (setting [12]); 2 µg/mL (≈ 2.66 µM) in test [1] (setting [13]); 2 µg/mL (≈ 2.66 µM) in test [1] (setting [14]); 1 µg/mL (≈ 1.33 µM) in test [1] (setting [15]); 2 µg/mL (≈ 2.66 µM) in test [1] (setting [16]); 1 µg/mL (≈ 1.33 µM) in test [1] (setting [17]). Besides, the MIC in test [2] (PAO1) was 1 µg/mL; in test [2] (setting [4]) it was 0.5 µg/mL; in test [2] (PAO1, strain PAO1-pGK1900-PER1) it was 2 µg/mL; in test [2] (PAO1, strain PAO1-pGK1900-PER4), 2 µg/mL; in test [3] (setting [5]), 0.5 µg/mL (≈ 0.665 µM); in test [3] (setting [6]), 2 µg/mL (≈ 2.66 µM). Moreover, the MIC in test [3] (setting [7]), in test [3] (setting [8]), in test [3] (setting [9]) and in test [3] (setting [10]) was 2 µg/mL (≈ 2.66 µM) each time.
With `CO/N=C(\C(=O)N[C@@H]1C(=O)N2C(C(=O)[O-])=C(C[N+]3(C)CCCC3)CS[C@H]12)c1csc(N)n1` [FEP, cefepime], the MIC in test [2] (PAO1) is 1 µg/mL; in test [2] (setting [4]), 4 µg/mL; in test [2] (PAO1, strain PAO1-pGK1900-PER1), greater than 128 µg/mL; in test [2] (PAO1, strain PAO1-pGK1900-PER4), greater than 128 µg/mL; in test [3] (setting [5]), 2 µg/mL (≈ 4.16 µM); in test [3] (setting [6]) it was 128 µg/mL (≈ 266 µM). Further, the MIC in test [3] (setting [7]) was 128 µg/mL (≈ 266 µM); in test [3] (setting [8]), 128 µg/mL (≈ 266 µM); in test [3] (setting [9]), 64 µg/mL (≈ 133 µM); in test [3] (setting [10]), 128 µg/mL (≈ 266 µM); in test [3] (setting [11]), 128 µg/mL (≈ 266 µM).
On to `C[C@H]1COc2c(N3CCN(C)CC3)c(F)cc3c(=O)c(C(=O)O)cn1c23` [LEV, levofloxacin], for which, in test [1] (56 PER-producing PA strains), the MIC range fell in the range of 0.5 to 64 mg/L and the “% resistance” value is 82.14%. In test [1] (Pseudomonas aeruginosa), the MIC50 was determined as 16 µg/mL (≈ 44.3 µM) and the MIC90 is 32 µg/mL (≈ 88.6 µM).
On to `C[C@@H](O)[C@H]1C(=O)N2C(C(=O)O)=C(S[C@@H]3CN[C@H](C(=O)N(C)C)C3)[C@H](C)[C@H]12` [MEM, meropenem], for which the “% resistance” value in test [1] (56 PER-producing PA strains) is 91.07%. The compound further showed an MIC50 in test [1] (Pseudomonas aeruginosa) of 16 µg/mL (≈ 41.7 µM). This compound displayed an MIC90 in test [1] (Pseudomonas aeruginosa) of 64 µg/mL (≈ 167 µM). Moreover, the MIC in test [1] (setting [12]) was determined as 16 µg/mL (≈ 41.7 µM); in test [1] (setting [13]), 32 µg/mL (≈ 83.4 µM); in test [1] (setting [14]), 32 µg/mL (≈ 83.4 µM); in test [1] (setting [15]) it was 16 µg/mL (≈ 41.7 µM); in test [1] (setting [16]) it was 16 µg/mL (≈ 41.7 µM); in test [1] (setting [17]) it was 32 µg/mL (≈ 83.4 µM). The MIC in test [2] (PAO1) was determined as 0.5 µg/mL; in test [2] (setting [4]), 1 µg/mL; in test [2] (PAO1, strain PAO1-pGK1900-PER1), 1 µg/mL; in test [2] (PAO1, strain PAO1-pGK1900-PER4), 1 µg/mL; in test [3] (setting [6]), 1 µg/mL (≈ 2.61 µM); in test [3] (setting [7]), 1 µg/mL (≈ 2.61 µM). Besides, the MIC in test [3] (setting [8]) was 1 µg/mL (≈ 2.61 µM); in test [3] (setting [9]), 2 µg/mL (≈ 5.22 µM); in test [3] (setting [10]), 1 µg/mL (≈ 2.61 µM); in test [3] (setting [11]), 32 µg/mL (≈ 83.4 µM).
For the compound colistin [CST], in test [1] (56 PER-producing PA strains), the MIC50 was 2 µg/mL, the MIC90 came to 2 µg/mL, the MIC range lay in the range of 0.25 to 2 mg/L and the “% resistance” value was determined as 0.00%.

Values taken from publication PMC10939098 (Emerging Microbes & Infections, 2024).
